Measurements reported in patent US9408856B2, “Topical steroidal formulations” (Temple University—Of The Commonwealth System of Higher …, priority 2008, dated 2016).

What was measured:
[1] = test system: dexamethasone-induced thymic and splenic atrophy; test: Dexamethasone-induced thymic and splenic atrophy in mice; format: in vivo, CD-1 mice; design: Thymus wt / Spleen wt: unit not given here; conditions: for Approximate Potency Compared to Fluasterone in Protecting Against DEX-induced Thymic and Splenic Involution: fluasterone = 1
Protocol: Administration of dehydroepiandrosterone (DHEA, 60 mg/kg, s.c.) for three days partially reverse thymic and splenic atrophy induced by a single injection of dexamethasone (1.6 mg/mouse). In this experiment, the efficacy of either 10 mg/kg or 20 mg/kg DHEA administered s.c. versus the effect of 10 mg/kg or 20 mg/kg fluasterone was investigated.
5% Cremophor (polyethoxylated castor oil; Sigma Chemicals)-95% saline vehicle was prepared using 95 mL of sterile 0.9% NaCl (filtered through sterile 0.22 micron filter) and 5 mL of Cremophor. The Cremophor was dissolved by swirling for approximately 5 minutes.
Dexamethasone solutions were prepared by dissolving dexamethasone (Sigma Chemicals) in absolute ethanol. For example, 71.9 mg of dexamethasone was dissolved in 2.9 mL of absolute ethanol. In order to prevent precipitation, the solution was kept on a hotplate between injections.
For the 10 mg/kg suspension, 25.7 mg of DHEA was weighed out, transferred to a glass scintillation vial, and 10.3 mL of the Cremophor-saline vehicle was added. The DHEA suspension was homogenized using a Tissumizer at 80% power for 30 sec. The Tissumizer was rinsed with 70% ethanol prior to homogenization. After the 10 mg/kg DHEA suspension was homogenized the probe was rinsed 2× with 50 mL of absolute ethanol, then with 50 mL of 70% ethanol, and then dried with sterile gauze. For the 20 mg/kg DHEA suspension, 50.9 mg DHEA was suspended in 10.2 mL of Cremophor-saline vehicle.
19.4 mg of fluasterone was weighed out and transferred to a glass scintillation vial. 7.8 mL of Cremophor-saline vehicle was added to the vial and the contents of the vial were homogenized with a Tissumizer as described previously. Prior to preparing the 20 mg/kg fluasterone, the probe was rinsed 2× with 50 mL of absolute ethanol and 1× with 50 mL of 70% ethanol. For the 20 mg/kg suspension, 47.0 mg was weighed out and transferred to a glass scintillation vial. 9.4 mL of Cremophor-saline vehicle was added to the vial and the contents of the vial were homogenized with a Tissumizer as described above.
Female CD-1 mice, 43-45 days old, were obtained from Charles River Laboratories. The mice were housed 5 per cage in plastic shoebox cages with ad libitum access to Purina chow 5015 and water in the Pharmacy CAF with 12 hr of alternating light and darkness.
Prior to the experiment the mice were weighed, separated into 6 groups containing 5 mice each and treated as follows:
Mice were treated s.c. with 0.1 mL of 5% Cremophor-95% saline for three days. On the third day, the mice were also treated s.c. with 1.6 mg of dexamethasone dissolved in 0.06 mL of absolute. ethanol.
Mice were treated s.c. with 0.25 mg of DHEA suspended in 0.1 mL of 5% Cremophor-95% saline for three days. On the third day, the mice were also treated s.c. with 1.6 mg of dexamethasone dissolved in 0.06 mL of absolute ethanol.
Mice were treated s.c. with 0.5 mg of DHEA suspended in 0.1 mL of 5% Cremophor-95% saline for three days. On the third day, the mice were also treated s.c. with 1.6 mg of dexamethasone dissolved in 0.06 mL of absolute ethanol.
Mice were treated s.c. with 0.25 mg of fluasterone suspended in 0.1 mL of 5% Cremophor-95% saline for three days. On the third day, the mice were also treated s.c. with 1.6 mg of dexamethasone dissolved in 0.06 mL of absolute ethanol.
Mice were treated s.c. with 0.5 mg of fluasterone suspended in 0.1 mL of 5% Cremophor-95% saline for three days. On the third day, the mice were also treated s.c. with 1.6 mg of dexamethasone dissolved in 0.06 mL of absolute ethanol.
All s.c. injections were made in the nape. All mice were lightly anesthetized while the s.c. injections were done.
Twenty-four hours after dexamethasone treatment, the mice were euthanized by an overdose of isoflurane. The spleen and thymus were removed, cleaned of any adventitia, rinsed, blotted on filter paper, and weighed. […]

[2] = target: glucose 6-phosphate dehydrogenase (G6PDH) (Homo sapiens, UniProt P11413); conditions: Schwartz et al., Cancer Res. 48:4817-4822, 1988; cited from earlier work
glucose 6-phosphate dehydrogenase (G6PDH), sequence (P11413 whole entry): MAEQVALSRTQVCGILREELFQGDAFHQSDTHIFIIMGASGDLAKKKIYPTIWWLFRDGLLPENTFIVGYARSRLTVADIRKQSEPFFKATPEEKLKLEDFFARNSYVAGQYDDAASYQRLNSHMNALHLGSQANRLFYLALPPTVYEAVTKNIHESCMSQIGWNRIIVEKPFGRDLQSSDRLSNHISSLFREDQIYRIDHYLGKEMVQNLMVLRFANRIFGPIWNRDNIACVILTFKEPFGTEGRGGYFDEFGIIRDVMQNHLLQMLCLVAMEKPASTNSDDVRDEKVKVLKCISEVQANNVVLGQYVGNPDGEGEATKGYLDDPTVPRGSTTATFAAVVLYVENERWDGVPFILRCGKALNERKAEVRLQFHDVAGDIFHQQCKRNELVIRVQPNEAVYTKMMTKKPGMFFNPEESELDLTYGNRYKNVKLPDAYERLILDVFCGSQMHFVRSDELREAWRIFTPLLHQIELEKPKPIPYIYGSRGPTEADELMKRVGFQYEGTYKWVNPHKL

[3] = Fate of orally administered 14C-fluasterone
[4] = Table 15, steroid 10 mg/kg in Cremophor-saline + dexamethasone
[5] = Table 16, steroid 20 mg/kg + dexamethasone
[6] = Table 16, steroid 60 mg/kg + dexamethasone
[7] = Table 16, steroid 40 mg/kg + dexamethasone
[8] = Table 15, steroid 20 mg/kg in Cremophor-saline + dexamethasone
[9] = Table 16, steroid 5 mg/kg + dexamethasone
[10] = Table 16, steroid 10 mg/kg + dexamethasone

In the case of `C[C@@H]1C[C@H]2[C@@H]3CC=C4CCCC[C@]4(C)[C@H]3CC[C@]2(C)C1=O` [16α-methyl-5-androsten-17-one], the “Body Weight” value [1, 4] is reported as 25.3 ± 0.8, the Spleen wt [1, 4] is reported as 37.8 ± 6.1 and the “Spleen wt/BW” value [1, 4] is reported as 1.5 ± 0.3. For the same compound, the Thymus wt [1, 4] was 28.0 ± 1.7, the “Thymus wt/BW” value [1, 4] was 1.1 ± 0.1 and the “Approximate Potency Compared to Fluasterone in Protecting Against DEX-induced Thymic and Splenic Involution” value ([1]; mice) was “about ⅙ or less”.

For `C[C@]12CCCCC1=CC[C@@H]1[C@@H]2CC[C@]2(C)C(=O)[C@H](O)C[C@@H]12` [16α-hydroxy-5-androsten-17-one], the “Body Weight” value [1, 5] was 25.4 ± 1.5, the Spleen wt [1, 5] was 46.6 ± 7.5 and the “Spleen wt/BW” value [1, 5] was 1.8 ± 0.2. For the same compound, the Thymus wt [1, 5] was 41.2 ± 1.3, the “Thymus wt/BW” value [1, 5] was 1.6 ± 0.1 and the “Body Weight” value [1, 6] was 23.8 ± 0.8. For the same compound, the Spleen wt [1, 6] was 53.6 ± 6.3, the “Spleen wt/BW” value [1, 6] was 2.2 ± 0.3 and the Thymus wt [1, 6] was 45.9 ± 3.1. For the same compound, the “Thymus wt/BW” value [1, 6] was 1.9 ± 0.2 and the “Approximate Potency Compared to Fluasterone in Protecting Against DEX-induced Thymic and Splenic Involution” value ([1]; mice) was “about 1/12”.

In the case of `C[C@@H]1C[C@H]2[C@@H]3CCC4=CC(=O)C=C[C@]4(C)[C@@]3(F)[C@@H](O)C[C@]2(C)[C@@]1(O)C(=O)CO` [DEXAMETHASONE, dexamethasone, reference compound], the Thymus wt ([1]; Table 12, dexamethasone 1.6 mg s.c. once after vehicle s.c. 3 days, 24 h after dexamethasone) is reported as 33.2 ± 1.3.

For `C[C@]12CCCC[C@@H]1CC[C@@H]1[C@@H]2CC[C@]2(C)C(=O)[C@H](F)C[C@@H]12` [compound 8356, 16α-fluoro-5α-androstan-17-one], the “Body Weight” value [1, 5] was 25.2 ± 2.9, the Spleen wt [1, 5] was 54.0 ± 4.5 and the “Spleen wt/BW” value [1, 5] was 2.0 ± 0.3. For the same compound, the Thymus wt [1, 5] was 40.8 ± 5.8, the “Thymus wt/BW” value [1, 5] was 1.6 ± 0.1 and the “Body Weight” value [1, 7] was 25.2 ± 1.4. For the same compound, the Spleen wt [1, 7] was 51.2 ± 3.0, the “Spleen wt/BW” value [1, 7] was 2.0 ± 0.2 and the Thymus wt [1, 7] was 54.4 ± 4.5. The “Thymus wt/BW” value [1, 7] was 2.2 ± 0.2, the “Approximate Potency Compared to Fluasterone in Protecting Against DEX-induced Thymic and Splenic Involution” value ([1]; mice) was “about ⅛” and the “G6PDH inhibition compared with fluasterone” value [2] was “more potent G6PDH inhibitor than fluasterone”.

In the case of `C[C@]12CC[C@H]3[C@@H](CC=C4CCCC[C@@]43C)[C@@H]1C[C@@H](F)[C@@H]2O` [16α-fluoro-5-androsten-17β-ol], the “Body Weight” value [1, 5] is reported as 25.1 ± 1.0, the Spleen wt [1, 5] is reported as 52.3 ± 10.8 and the “Spleen wt/BW” value [1, 5] is reported as 2.1 ± 0.4. For the same compound, the Thymus wt [1, 5] was 42.3 ± 4.6, the “Thymus wt/BW” value [1, 5] was 1.7 ± 0.2 and the “Body Weight” value [1, 6] was 25.7 ± 1.5. For the same compound, the Spleen wt [1, 6] was 45.9 ± 5.1, the “Spleen wt/BW” value [1, 6] was 1.8 ± 0.2 and the Thymus wt [1, 6] was 45.1 ± 5.1. The “Thymus wt/BW” value [1, 6] was 1.8 ± 0.2 and the “Approximate Potency Compared to Fluasterone in Protecting Against DEX-induced Thymic and Splenic Involution” value ([1]; mice) was < 1/12.

In the case of `C[C@H]1CC[C@@]2(C)C(=CC[C@@H]3[C@@H]2CC[C@]2(C)C(=O)[C@H](C)C[C@@H]32)C1` [3β-methyl-16α-methyl-5-androsten-17-one], the “recovery from anesthesia (two mice of the group)” value ([1]; 20 mg/kg group, Example 9) is reported as “never recovered from anesthesia”, the Spleen wt [1, 4] is reported as 44.9 + 9.2 and the “Spleen wt/BW” value [1, 4] is reported as 1.7 + 0.3. For the same compound, the Thymus wt [1, 4] was 42.6 + 4.7, the “Thymus wt/BW” value [1, 4] was 1.7 + 0.2 and the Spleen wt [1, 8] was 44.4 ± 8.7. The “Spleen wt/BW” value [1, 8] was 1.8 ± 0.3, the Thymus wt [1, 8] was 37.7 ± 4.0 and the “Thymus wt/BW” value [1, 8] was 1.5 ± 0.2. The “Approximate Potency Compared to Fluasterone in Protecting Against DEX-induced Thymic and Splenic Involution” value ([1]; mice) was “about ⅙”.

For `C[C@H]1CC[C@@]2(C)C(=CC[C@@H]3[C@@H]2CC[C@]2(C)C(=O)CC[C@@H]32)C1` [3β-methyl-5-androsten-17-one], the Spleen wt [1, 4] was 70.7 + 4.5, the “Spleen wt/BW” value [1, 4] was 2.9 + 0.2 and the Thymus wt [1, 4] was 61.9 + 3.9. The “Thymus wt/BW” value [1, 4] was 2.6 + 0.2, the Spleen wt [1, 8] was 67.0 ± 11.3 and the “Spleen wt/BW” value [1, 8] was 2.6 ± 0.2. The Thymus wt [1, 8] was 62.2 ± 4.1, the “Thymus wt/BW” value [1, 8] was 2.4 ± 0.2 and the “Approximate Potency Compared to Fluasterone in Protecting Against DEX-induced Thymic and Splenic Involution” value ([1]; mice) was “slightly less active”. The “rank of activity among steroids tested against DEX-induced thymic and splenic involution” value ([1]; mice) was “almost as great potency”.

For `C[C@H]1CC[C@@]2(C)C(=CC[C@@H]3[C@@H]2CC[C@]2(C)C(=O)[C@H](Cl)C[C@@H]32)C1` [3β-methyl-16α-chloro-5-androsten-17-one], the Spleen wt [1, 4] was 42.3 ± 5.6, the “Spleen wt/BW” value [1, 4] was 1.6 ± 0.2 and the Thymus wt [1, 4] was 31.7 ± 4.1. For the same compound, the “Thymus wt/BW” value [1, 4] was 1.2 ± 0.1, the Spleen wt [1, 8] was 38.6 ± 6.3 and the “Spleen wt/BW” value [1, 8] was 1.2 ± 0.3. For the same compound, the Thymus wt [1, 8] was 28.6 ± 3.2, the “Thymus wt/BW” value [1, 8] was 1.1 ± 0.1 and the “Approximate Potency Compared to Fluasterone in Protecting Against DEX-induced Thymic and Splenic Involution” value ([1]; mice) was “about ⅙ or considerably”.

For `C[C@]12CCCCC1=C[C@@H](O)[C@@H]1[C@@H]2CC[C@]2(C)C(=O)[C@H](F)C[C@@H]12` [7α-hydroxyfluasterone, 7α-hydroxy-16α-fluoro-5-androsten-17-one], the “Body Weight” value [1, 9] was 24.5 ± 1.0, the Spleen wt [1, 9] was 46.3 ± 11.1 and the “Spleen wt/BW” value [1, 9] was 1.8 ± 0.5. The Thymus wt [1, 9] was 43.8 ± 6.9, the “Thymus wt/BW” value [1, 9] was 1.8 ± 0.3 and the “Body Weight” value [1, 10] was 24.0 ± 1.3. For the same compound, the Spleen wt [1, 10] was 50.9 ± 12.5, the “Spleen wt/BW” value [1, 10] was 2.1 ± 0.5 and the Thymus wt [1, 10] was 54.8 ± 12.1. The “Thymus wt/BW” value [1, 10] was 2.3 ± 0.4 and the “Approximate Potency Compared to Fluasterone in Protecting Against DEX-induced Thymic and Splenic Involution” value ([1]; mice) was “about ½”.

In the case of `C[C@]12CCCCC1=CC[C@@H]1[C@@H]2CC[C@]2(C)C(=O)[C@H](F)C[C@@H]12` [^14C-Fluasterone], the “metabolism after oral administration” value [3] is reported as “extensive first-pass hepatic and/or gastrointestinal metabolism”.

With `C[C@H]1CC[C@@]2(C)C(=CC[C@@H]3[C@@H]2CC[C@]2(C)C(=O)[C@H](F)C[C@@H]32)C1` [3β-methyl-16α-fluoro-5-androsten-17-one] the Spleen wt [1, 4] was 50.9 ± 7.5, the “Spleen wt/BW” value [1, 4] was 2.0 ± 0.3 and the Thymus wt [1, 4] was 43.8 ± 3.0. The “Thymus wt/BW” value [1, 4] was 1.7 ± 0.1, the Spleen wt [1, 8] was 55.0 ± 4.6 and the “Spleen wt/BW” value [1, 8] was 2.2 ± 0.1. The Thymus wt [1, 8] was 55.8 ± 5.4, the “Thymus wt/BW” value [1, 8] was 2.2 ± 0.2 and the “Approximate Potency Compared to Fluasterone in Protecting Against DEX-induced Thymic and Splenic Involution” value ([1]; mice) was “<½”.
